Converted amounts (≈) assume the structure as drawn. Where a name gives a salt, the structure may show the parent alone. Read-outs that look alike come from different tables or passages of the source.
Key:
L1210 cells = assay: PDC test, L1210 cell growth; assay type: cell-based, murine; conditions: Mus musculus, read-out: PDC ID50
Procedure: (c) Another test protocol is the PDC test. L1210 cells, a murine leukemia cell line, were grown in RPMI 1640 supplemented with 10% fetal bovine serum and genamicin (50 μg/ml). Drug dilutions were prepared in the appropriate solvent and 20 μl of each dilution were added to 24-well Linbro tissue culture plates followed by the addition of 2.0 ml of cell suspension containing 3×10^4 cells per ml. Solvent and medium controls were included in each test. After incubation at 37° C. for three days in 5% CO2 in air, the contents of each well were removed and the cells counted in a ZBI Coulter counter. Per cent growth was calculated relative to the controls and the levels of drug activity were expressed as ID50 in terms of molarity (M).

Escherichia coli = assay: in vitro antibacterial (ABMF) microdilution susceptibility test; assay type: cell-based; conditions: Mueller-Hinton broth, 37° C., 16-24 hours, read-out: ABMF Test M.I.C. E. coli
Source text: (§1) (d) Still another test protocol is the in vitro antibacterial (ABMF) test which is a recognized standard microdilution susceptibility procedure in Mueller-Hinton broth against gram-positive and gram-negative bacterial test organisms. The procedure is a modification of a state-of-the-art procedure reported in Manual of Clinical Microbiology, Lennette, E. H., ed., by Barry, A. L. and C. Thornsberry at pages 463-474 and by Gavan, T. L. and A. L. Barry at pages 459-462, American Society for Microbiology, Washington, 1980.
(§2) In the test, a given bacterial culture is used to inoculate individaul test wells of microdilution trays containing growth medium and test compound, the latter in a microdilution series: 1000, 333, 111, 37, 12, 4, 1.4, and 0.46 micrograms per milliliter. […] For convenience, values are reported for Escherichia coli, Branhamella catarrhalis, Alcaligenes viscolactis, Streptococcus pneumoniae, and Bacillus cereus

Branhamella catarrhalis = assay: as above; assay type: cell-based; conditions: Moraxella catarrhalis; Mueller-Hinton broth, 37° C., 16-24 hours; read-out: ABMF Test M.I.C. B. cata.
Source text: as §1, §2

Bacillus cereus = assay: as above; assay type: cell-based; conditions: Mueller-Hinton broth, 37° C., 16-24 hours, read-out: ABMF Test M.I.C. B. cere.
Source text: as §1, §2

Streptococcus pneumoniae = assay: as above; assay type: cell-based; conditions: Mueller-Hinton broth, 37° C., 16-24 hours, read-out: ABMF Test M.I.C. S. pneu.
Source text: as §1, §2

Alcaligenes viscolactis = assay: as above; assay type: cell-based; conditions: Mueller-Hinton broth, 37° C., 16-24 hours, read-out: ABMF Test M.I.C. A. visc.
Source text: as §1, §2

[1] = system: lymphocytic leukemia P388; assay: in vivo lymphocytic leukemia P388 test; design: species or system CD2 F1 mice; conditions: Mus musculus, P388, ip, 120 h, intraperitoneally once daily for five days, read-out: P388 in vivo T/C × 100
Procedure: Another test protocol is the in vivo lymphocytic leukemia P388 test. The animals used are either male or female CD2 F1 mice, six or seven animals per test group. The tumor transplant is by intraperitoneal injection of dilute ascitic fluid containing cells of lymphocytic leukemia P388. The test compounds are administered intraperitoneally once daily for five consecutive days at various doses following tumor inoculation. The animals are weighed and survivors are recorded on a regular basis for 30 days. A compound is designated "toxic" if, at a given dose, all animals died prior to four days after the first injection of drug. A ratio of survival time for treated (T)/control (C) animals is calculated. A criterion for efficacy is a ratio T/C times 100 greater than or equal to 125. See Cancer Chemotherapy Reports, Part 3, 3, 1 (1972) for a comprehensive discussion of the protocol.

HCT-8 cells = assay: in vitro proliferating human colon adenocarcinoma (HCA) cell screen, HCT-8; assay type: cell-based; conditions: HCT-8 cells, 60 to 65 hours, ED50, read-out: HCA ED50 Avg.
Procedure: (a) One test protocol is the in vitro proliferating human colon adenocarcinoma (HCA) cell screen. In this test, HCT-8 cells (HCA cell line received from Yale University) are trypsinized using trypsin-EDTA. A single cell suspension is achieved by passing the cells through a 26 gauge needle with a 20-cc syringe. A cell suspension is prepared using RPMI 1640+10% FCS+50 μg/ml gentamicin sulfate with a cell concentration is approximately 30,000 cells/ml. The cell suspension is dispensed in Linbro 24-well plates; 1 ml/well. The plates are incubated for approximately 48 hours at 37° C. in a 5% CO2 atmosphere. At this time test compounds are added in the appropriate concentration. Five μl of the 200 μg/ml stock solution is added to each well in a primary test. […] of the appropriate dilution is added to each well for a titration test. The plates are reincubated an additional 60 to 65 hours at 37° C. in a 5% CO 2 atmosphere. The cells are lysed using a mix of cationic surfactant, glacial acetic acid, and sodium chloride. Two ml of the lysed cell suspension from each well is added to 8 ml of diluent. The number of nuclei is determined using a Coulter counter (ZBI model), and a percent growth for each drug concentration is calculated. From this, and ID50 (molar concentration of compound that results in 50% inhibition of growth) is determined.

| Compound | IC50 (L1210 cells; 72 h, L1210 cells, three days) [nM] | MIC (Escherichia coli) [µg/mL] | MIC (Branhamella catarrhalis) [µg/mL] | MIC (Bacillus cereus) [µg/mL] | MIC (Streptococcus pneumoniae) [µg/mL] | MIC (Alcaligenes viscolactis) [µg/mL] | response vs control in vivo at 3.12 mg/kg [1] [%] | response vs control in vivo at 6.25 mg/kg [1] [%] | IC50 (HCT-8 cells) [nM] | response vs control in vivo at 100 mg/kg ([1]; 100 mg/kg) [%] | response vs control in vivo at 200 mg/kg ([1]; 200 mg/kg) [%] | response vs control in vivo at 1.56 mg/kg [1] [%] | response vs control in vivo at 12.5 mg/kg [1] [%] | response vs control in vivo at 0.39 mg/kg ([1]; 0.39 mg/kg) [%] | response vs control in vivo at 0.78 mg/kg ([1]; 0.78 mg/kg) [%] | IC50 (L1210 cells; L1210, 72 h) [nM] |
| --- | --- | --- | --- | --- | --- | --- | --- | --- | --- | --- | --- | --- | --- | --- | --- | --- |
| CCN(CC)CCOc1ccc2c(c1)-c1nn(CCN(CC)CC)c3ccc([N+](=O)[O-])c(c13)N2 [Example 21] | 460 | 111 (≈ 238 µM) | 12.3 (≈ 26.4 µM) | 37 (≈ 79.3 µM) | 12.3 (≈ 26.4 µM) | 4.1 (≈ 8.79 µM) | – | – | – | – | – | – | – | – | – | – |
| CCN(CC)CCn1nc2c3c(c([N+](=O)[O-])ccc31)Nc1ccc(OCc3ccc(OC)cc3)cc1-2 [Example 22, N,N-Diethyl-9-[(4-methoxyphenyl)methoxy]-5-nitropyrazolo[3,4,5-kl]acridine-2(6H)-ethanamine, methanesulfonate (salt) (1:1)] | 820 | – | – | – | – | – | – | – | – | – | – | – | – | – | – | – |
| CCN(CC)CCn1nc2c3c(c([N+](=O)[O-])ccc31)Nc1cc(OC)cc(OC)c1-2.CS(=O)(=O)O.O [Example 24, N,N-Diethyl-8,10-dimethoxy-5-nitropyrazolo[3,4,5-kl]acridine-2(6H)-ethanamine, methanesulfonate, hydrate (1:1:1)] | 490 | 4.1 | < 0.46 | < 0.46 | 1.4 | < 0.46 | – | – | – | – | – | – | – | – | – | – |
| CCN(CC)CCn1nc2c3c(c([N+](=O)[O-])ccc31)Nc1ccc(OC)c(Cl)c1-2 [Example 25, 10-Chloro-N,N-diethyl-9-methoxy-5-nitropyrazolo[3,4,5-kl]acridine-2(6Hethanamine, methanesulfonate, hydrate] | 70 | < 0.46 | < 0.46 | < 0.46 | < 0.46 | < 0.46 | – | – | – | – | – | – | – | – | – | – |
| CCN(CC)CCn1nc2c3c(c([N+](=O)[O-])ccc31)Nc1ccc(OC(=O)C(C)(C)C)cc1-2 [Example 28, 2-[2-(Diethylamino)ethyl]-2,6-dihydro-5-nitropyrazolo[3,4,5-kl]acridin-9-ol, 2,2-dimethylpropanoate (ester), methanesulfonate (salt) (1:1)] | 7.2 | – | – | – | – | – | 221 | 223 | – | – | – | – | – | – | – | – |
| CCCCCCCC(=O)Oc1ccc2c(c1)-c1nn(CCN(CC)CC)c3ccc([N+](=O)[O-])c(c13)N2 [Example 30, Octanoic acid,[2-[2-(diethylamino)ethyl]-2,6-dihydro-5-nitropyrazolo[3,4,5-kl]acridin-9-yl]ester, methanesulfonate (1:1), hemihydrate] | 4.3 | 37 | 12.3 | 37 | < 0.46 | < 0.46 | – | – | – | – | – | – | – | – | – | – |
| CCN(CC)CCn1nc2c3c(c([N+](=O)[O-])ccc31)Nc1ccc(OC(=O)c3ccccc3)cc1-2 [Example 31, 2-[2-(Diethylamino)ethyl]-2,6-dihydro-5-nitropyrazolo [3,4,5-kl]acridin-9-ol, benzoate (ester), methanesulfonate (1:1) (salt), monohydrate] | 3 | – | – | – | – | – | – | – | – | – | – | – | – | – | – | – |
| COc1cc(OC)c2c(c1)-c1nn(CCN(C)C)c3ccc([N+](=O)[O-])c(c13)N2.CS(=O)(=O)O [Example 38, 7,9-Dimethoxy-N,N-dimethyl-5-nitropyrazolo[3,4,5-kl]acridine-2(6H)-ethanamine, methanesulfonate (1:1)] | – | 1000 | 1.4 | < 0.46 | < 0.46 | < 0.46 | – | – | 64 | 119 | 128 | – | – | – | – | – |
| CCCCOc1ccc2c(c1)-c1nn(CCNCCO)c3ccc([N+](=O)[O-])c(c13)N2 [Example 41, 2-[[2-(9-Butoxy-5-nitropyrazolo[3,4,5-kl]acridin-2(6H)-yl)ethyl]amino]ethanol, methanesulfonate, hemihydrate] | – | 3.7 | 1.4 | 12.3 | 12.3 | < 0.46 | 147 | 159 | 340 | – | – | 141 | 174 | – | – | – |
| Cc1ccc2c(c1)-c1nn(CCNCCO)c3ccc([N+](=O)[O-])c(c13)N2.Cl [Example 42, 2-[[2-(9-Methyl-5-nitropyrazolo[3,4,5-kl]acridin-2(6H)-yl)ethyl]amino]ethanol, monohydrochloride] | 590 | < 0.46 | < 0.46 | < 0.46 | < 0.46 | < 0.46 | – | – | – | – | – | – | – | – | – | – |
| CN(C)CCCn1nc2c3c(c([N+](=O)[O-])ccc31)Nc1ccc(O)cc1-2 [Example 44, 2-[3-(Dimethylamino)propyl]-2,6-dihydro-5-nitropyrazolo[3,4,5-kl]acridin-9-ol, methanesulfonate] | – | < 0.46 | < 0.46 | 0.46 | 0.46 | < 0.46 | 270 | – | 12 | – | – | 200 | – | 162 | 182 | – |
| CCOc1ccc2c(c1)-c1nn(CCCN(C)C)c3ccc([N+](=O)[O-])c(c13)N2.CS(=O)(=O)O [Example 46, 9-Ethoxy-N,N-dimethyl-5-nitropyrazolo[3,4,5-kl]acridine-2(6H)-propanamine, methanesulfonate (1:1)] | – | 12.3 | 1.4 | 4.1 | 4.1 | < 0.46 | 137 | 169 | 55 | – | – | 132 | 232 | – | – | – |
| CCN(CC)CCn1nc2c3c(c([N+](=O)[O-])cc([N+](=O)[O-])c31)Nc1ccc(OCc3ccccc3)cc1-2 [Example 52, N,N-Diethyl-3,5-dinitro-9-(phenylmethoxy)pyrazolo [3,4,5-kl]-2(6H)-ethanamine, methanesulfonate, hemihydrate] | – | – | – | – | – | – | – | – | – | – | – | – | – | – | – | 750 |
